Experimental data reported in patent EP2501821B1, “PROCESS FOR PRODUCING PRIMYCIN, PRIMYCIN COMPONENT(S), PRECURSORS AND METABOLITES THEREOF VIA FEMENTATION BY THE USE OF BACTERIAL SPECIES SACCHAROMONOSPORA AZUREA” (Pannonpharma Gyógyszergyártó Kft., priority 2009, dated 2011).

Columns and labels:
Bacillus sp. = assay: primycin MIC, antimicrobial spectrum re-evaluation; type: cell-based; settings: culture collection strains
Excerpt: (§1) In our research leading to our new findings we assayed the antimicrobial spectrum of primycin in order to re-evaluate the minimal inhibitory concentration (MIC) values known from the literature and to determine the primycin susceptibility of new isolates. Comparative test results on strains of Gram-positive bacterial species of Microbial strain culture collection of PTE TTK BI Department of General and Environmental Microbiology were in agreement with the literature data with primycin MIC values of 0.06 mg/L for Staphylococcus sp. and 0.03 mg/L for Bacillus sp. respectively. Primycin MIC values higher than 1 mg/L for any of the Gram-positive strains tested were not detected.

Staphylococcus sp. = assay: primycin MIC, antimicrobial spectrum re-evaluation; type: cell-based; settings: culture collection strains
Excerpt: as §1

Gram-positive strains = assay: primycin MIC, antimicrobial spectrum re-evaluation; type: cell-based, Gram-positive bacterial species; settings: any of the Gram-positive strains tested
Excerpt: as §1

Gram-negative species = assay: primycin antimicrobial spectrum re-evaluation; type: cell-based
Excerpt: as §1

[1] = test system: strains of species belonging to Saccharomonospora genus; assay: primycin MIC (primycin tolerance); type: cell-based
S. cyanea (44106) = assay: primycin MIC (primycin tolerance); type: cell-based; settings: S. cyanea DSM 44106
Description: (§2) Strains were grown for seven days and once the colonies were removed and extracted, they were tested for antimicrobial production in agar diffusion tests. […] For this comparison we repeatedly used the strains of the culture collection of Department which had preliminary been tested for primycin susceptibility. Our work hypothesis was further supported by our experience that a butanol-ethanol-water mixture (in the ratio of 1:1:2 respectively) which is an effective solvent of primycin was suitable for the extraction of the antibiotic. […] Thereafter we carried out shake flask fermentations with the Saccharomonospora sp. strains suitable for the process. Production results on shake flasks of the strains tested were congruent to their cultivations on solid media. […] Table 1. Primycin tolerance and antibiotic production of Saccharomonospora isolates. *: S. azurea strains identified and registered on the name S. caesia earlier: […]

S. glauca (43769) = assay: primycin MIC (primycin tolerance); type: cell-based; settings: S. glauca DSM 43769
Description: as §2

S. viridis (43017) = assay: primycin MIC (primycin tolerance); type: cell-based; settings: S. viridis DSM 43017
Description: as §2

S. xinjiangensis (44391) = assay: primycin MIC (primycin tolerance); type: cell-based; settings: S. xinjiangensis DSM 44391
Description: as §2

[2] = test system: Saccharomonospora azurea (caesia) DSM 43044; assay: primycin MIC (primycin tolerance); type: cell-based; settings: S. azurea (caesia) DSM 43044
Description: as §2

[3] = test system: Saccharomonospora azurea (caesia) DSM 43068; assay: primycin MIC (primycin tolerance); type: cell-based; settings: S. azurea (caesia) DSM 43068
Description: as §2

[4] = test system: Saccharomonospora azurea (caesia) DSM 43680; assay: primycin MIC (primycin tolerance); type: cell-based; settings: S. azurea (caesia) DSM 43680
Description: as §2

[5] = test system: Saccharomonospora azurea DSM 44631; assay: primycin MIC (primycin tolerance); type: cell-based; settings: S. azurea DSM 44631
Description: as §2

[6] = test system: Saccharomonospora aurea strains; assay: primycin MIC (primycin tolerance), summary statement; type: cell-based
Excerpt: As it is known that antibiotic-producing strains are less susceptible to the antibiotic produced by themselves and the primordials of the existing primycin-producing strain also was selected by primycin tolerance level to enhance their production capability, it has been suspected that lowered primycin susceptibility of Saccharomonospora azurea strains can be the outcome of the production of an antibiotic with a mode of action analogue to that of primycin. The literature concordantly states that primycin has a unique mode of action, therefore it could be suspected from our surprising findings that the antibiotic supposedly produced by these strains can be primycin itself. However, there is no literature on primycin production of Saccharomonospora azurea or any other presently accepted species of Saccharomonospora genera.

[7] = test system: Staphylococcus aureus (50 strains); settings: broth dilution assay; cited from earlier work
[8] = test system: Staphylococcus epidermidis (77 strains); settings: broth dilution assay; cited from earlier work
[9] = test system: Streptococcus faecalis (76 strains); settings: broth dilution assay; cited from earlier work
[10] = test system: one strain of Listeria monocytogenes; settings: broth dilution assay; cited from earlier work
[11] = in water; cited from earlier work
[12] = test system: Gram-positive bacteria and Mycobacterium species; settings: cited from earlier work
in vitro cell cultures = settings: cited from earlier work

Q: Which MIC (Bacillus sp.) does the source give for primycin here?
A: 0.03 µg/mL

Q: What about the MIC (Staphylococcus sp.) of the same substance?
A: 0.06 µg/mL

Q: What about the MIC (Gram-positive strains) of the same substance?
A: ≤ 1 µg/mL

Q: And the effectiveness (Gram-negative species)?
A: did not prove to be effective

Q: And the MIC [1]?
A: 8 to 64 µg/mL

Q: What about the “Primycin MIC” value (S. cyanea (44106)) of the same substance?
A: 8 µg/mL

Q: And the “Primycin MIC” value (S. glauca (43769))?
A: 8 µg/mL

Q: What about the “Primycin MIC” value (S. viridis (43017)) of the same substance?
A: 0,5 mg/L

Q: And the “Primycin MIC” value (S. xinjiangensis (44391))?
A: 1 µg/mL

Q: And the “Primycin MIC” value [2]?
A: 64 µg/mL

Q: What about the “Primycin MIC” value [3] of the same substance?
A: 64 µg/mL

Q: What about the “Primycin MIC” value [4] of the same substance?
A: 64 µg/mL

Q: What about the “Primycin MIC” value [5] of the same substance?
A: 64 µg/mL

Q: And the MIC [6]?
A: 64 µg/mL

Q: What about the “minimal inhibitory concentrations (MIC)” value [7] of the same substance?
A: 0.12 to 0.5 µg/mL

Q: And the “minimal inhibitory concentrations (MIC)” value [8]?
A: 0.12 to 0.5 µg/mL

Q: And the “minimal inhibitory concentrations (MIC)” value [9]?
A: 0.12 to 0.5 µg/mL

Q: What about the “minimal inhibitory concentrations (MIC)” value [10] of the same substance?
A: 0.12 to 0.5 µg/mL

Q: What about the solubility [11] of the same substance?
A: poorly soluble in water

Q: What about the bacteriostatic effect [12] of the same substance?
A: has bacteriostatic effect

Q: What about the toxicity (in vitro cell cultures) of the same substance?
A: not shown to be toxic
